From paper PMC2191296 (The Journal of Experimental Medicine, 1993) come the findings set out here.

Data set [1] can be described thus: Solubility of synthetic peptides in water. It counts as physicochemical. The conditions noted are these: peptides dissolved in dH2O; insoluble ones reconstituted in 20% DMSO.
For a further data set, the target named is H-2Dd (Mus musculus, UniProt P01900). Briefly: Solution phase competition assay. It counts as binding. As to conditions: data not shown.
Another data set concerns mAb 34-5-8S. Briefly: Control: binding of free peptide to the immobilized 34-5-8S antibody surface. As to conditions: free peptide without H-2Dd at concentrations as high as 222 uM; SPR.

Sequence of H-2Dd (P01900 whole entry, looked up): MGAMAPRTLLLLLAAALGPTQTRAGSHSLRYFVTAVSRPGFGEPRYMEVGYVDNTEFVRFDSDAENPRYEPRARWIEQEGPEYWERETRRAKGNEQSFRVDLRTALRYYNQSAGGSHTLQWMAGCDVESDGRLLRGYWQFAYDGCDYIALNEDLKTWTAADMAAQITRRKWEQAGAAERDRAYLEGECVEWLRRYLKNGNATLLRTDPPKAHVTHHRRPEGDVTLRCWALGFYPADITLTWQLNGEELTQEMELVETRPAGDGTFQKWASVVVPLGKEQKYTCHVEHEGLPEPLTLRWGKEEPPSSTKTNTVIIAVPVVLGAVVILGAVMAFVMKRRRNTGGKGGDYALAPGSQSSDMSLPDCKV

With SGPVALVNF [pD46B], in data set [1], the “solubility in water / aqueous solution” value was “relative aqueous insolubility”.

On to AGPARAAAL [pD2359], for which the “relative binding to H-2Dd” value on H-2Dd is recorded as “binds better than pD239”. The “signal of free peptide on immobilized 34-5-8S” value with mAb 34-5-8S is listed as below 7 RU.

As for SGPVALVNFI [pD46A], the “solubility in water / aqueous solution” value in data set [1] is on record as “relative aqueous insolubility”.
